According to US4965283A, “Amino acid esters, process for the preparation thereof and use thereof” (Dr. Willmar Schwabe GmbH & Co., priority 1987, dated 1990):
Where a name gives a salt, the structure may show the parent alone. Read-outs that look alike come from different tables or passages of the source.

Assays:
[1] = system: mouse; assay: observation for neurotoxicity symptoms (motility, muscle tonus, respiratory frequency, body temperature, general behaviour); format: in vivo
Description: During the experiments described above, the animals were observed during the whole of the experimental period (up to 4 hours) for signs of substance-caused changes of behaviour and neurotoxicity (motility, muscle tonus, respiratory frequency, body temperature and general behaviour).

[2] = system: maximum electroshock spasm (MES), extensor spasm in mice; assay: MES test (maximum electroshock; inhibition of extensor spasm); format: in vivo, male mice (NMRI); conditions: for responders at 50 mg/kg / ED50 / responders at 100 mg/kg / responders at 25 mg/kg: Mus musculus; for ED50: read-out: ED 50 values; for ED 50 values (estimated values): * estimated from several tests with different dosages
Text: For the determination of the anticonvulsive/anti-epileptic activity of the substances according to the present invention the method described by E. A. Swinyard et al., J. Pharmacol. exp. Therapeut. 106, 319-330 (1952) and by L. A. Woodbury et al., Arch. int. Pharmacodyn., 92, 97-107 (1952) was used. To male mice (NMRI) with a body weight of 20-25 g via corneal electrodes, an alternating current of 50 Hz and 50 mA is applied for 0.2 sec. (HSE-shock stimulation apparatus; type 207). The maximum electroshock spasm (MES) consists of a tonic extension of the rear extremities, the clonic twitch and loss of consciousness. The activity criterion is taken as being the inhibition of the extensor spasm by the substances according to the present invention. Before the experiments the mice had free access to feed and water. The test substances were administered orally as suspensions in 0.2% agar by stomach tubes; the control animals received adequate volumes of agar. 1 hour and 3 hours after administration the test for protective action against MES was carried out.
As percentage action the percentage proportion of those animals which in the MES test were protected 100% against the extensor spasm is given. 10 animals were used per test.
The ED 50 values were determined according to Lichtfield and Wilcoxon J. Pharmacol. exp. Therapeut. 96, 99 (1949) in each case with 4 to 5 animal groups each of 8-10 animals per dosage stage.

[3] = system: maximum electroshock spasm (MES), extensor spasm in mice; assay: as above; format: in vivo, male mice (NMRI); conditions: Mus musculus, ip, 1 h, read-out: protective action [%] after 1 hr
[4] = po, 1 h, 50 mg/kg, oral, 1 hr after administration, n = 10, read-out: protective action [%] after 1 hr
[5] = po, 3 h, 50 mg/kg, oral, 3 hrs after administration, n = 10, read-out: protective action [%] after 3 hrs
[6] = po, 1 h, 100 mg/kg, oral, 1 hr after administration, n = 10, read-out: protective action [%] after 1 hr
[7] = po, 3 h, 100 mg/kg, oral, 3 hrs after administration, n = 10, read-out: protective action [%] after 3 hrs
[8] = 100 mg/kg, oral, 1 hr after administration, n = 10
[9] = 100 mg/kg, oral, 3 hrs after administration, n = 10
[10] = MES test, oral, 1 hour after administration

**Q.** Which “Neurotoxic limiting dose in the mouse, dose p.o.” value ([1]; p.o.) does the source give for CCCC(C)C1(CC)C(=O)NC(=O)NC1=O (centres unmarked) [pentobarbital] here?
**A.** Its value is 60 mg/kg.

**Q.** With O=C1NC(=O)C(c2ccccc2)(c2ccccc2)N1 [phenytoin, diphenylhydantoin, reference compound] as the compound, how does the “Neurotoxic limiting dose in the mouse, dose p.o.” value ([1]; in vivo, po) read?
**A.** Its value is 100 mg/kg.

**Q.** And the responders at 50 mg/kg [2, 4]?
**A.** The responders at 50 mg/kg was 100%.

**Q.** What about the ED50 ([2]; po, 1 h, MES test, oral, 1 hour after administration) of the same compound?
**A.** The ED50 was 9.1 mg/kg.

**Q.** And the responders at 50 mg/kg [2, 5]?
**A.** The responders at 50 mg/kg was 100%.

**Q.** For NC(=O)N1c2ccccc2C=Cc2ccccc21 [carbamazepine, reference compound], which “Neurotoxic limiting dose in the mouse, dose p.o.” value ([1]; in vivo, po) is on record?
**A.** Its value is 100 mg/kg.

**Q.** And the responders at 50 mg/kg [2, 4]?
**A.** The responders at 50 mg/kg was 100%.

**Q.** What about the responders at 50 mg/kg [2, 5] of the same compound?
**A.** The responders at 50 mg/kg was 100%.

**Q.** CCC1(c2ccccc2)C(=O)NC(=O)NC1=O [phenobarbital, reference compound] was tested. Which “Neurotoxic limiting dose in the mouse, dose p.o.” value ([1]; p.o.) did it give?
**A.** The value was 60 mg/kg.

**Q.** What about the ED50 ([2]; po, 1 h) of the same compound?
**A.** The ED50 was 19.2 mg/kg.

**Q.** And the responders at 100 mg/kg ([2]; po, 1 h, read-out: protective action [%] after 1 hr)?
**A.** The responders at 100 mg/kg was 100%.

**Q.** And the responders at 100 mg/kg ([2]; po, 3 h, read-out: protective action [%] after 3 hrs)?
**A.** The responders at 100 mg/kg was 100%.

**Q.** What does the source list for CCC1(C)CC(=O)NC1=O (centres unmarked) [ethosuximide, reference compound]?
**A.** Neurotoxic limiting dose in the mouse, dose p.o. ([1]; in vivo, po): 500 mg/kg; responders at 100 mg/kg [2, 6]: 0%; responders at 100 mg/kg [2, 7]: 0%; ED50 ([2]; po, 4 h, MES test, oral, ** 4 hours after administration): > 250 mg/kg

**Q.** Which “protective action [%] after 1 hr” value [2, 8] does the source give for COC1=CC(=O)OC1C(OC(=O)[C@@H]1CCCN1)c1ccccc1F (single isomer, unassigned) [129 A] here?
**A.** The value was 100%.

**Q.** What about the “protective action [%] after 3 hrs” value [2, 9] of the same compound?
**A.** The value was 100%.

**Q.** What about the “ED 50 values (estimated values)” value [2, 10] of the same compound?
**A.** The value was 40 to 50 mg/kg.

**Q.** Which “ED 50 values (estimated values)” value [2, 10] does the source give for COC1=CC(=O)OC1C(OC(=O)[C@@H]1CCCN1)c1ccccc1C(F)(F)F (single isomer, unassigned) [139 A] here?
**A.** The value was 15 to 20 mg/kg.

**Q.** What about the responders at 50 mg/kg [2, 4] of the same compound?
**A.** Its responders at 50 mg/kg is 100%.

**Q.** What about the responders at 50 mg/kg [2, 5] of the same compound?
**A.** Its responders at 50 mg/kg is 50%.

**Q.** With COC1=CC(=O)OC1C(OC(=O)[C@@H]1CCCN1)c1ccccc1Br (single isomer, unassigned) [127 A] as the compound, how does the responders at 50 mg/kg [2, 4] read?
**A.** Its responders at 50 mg/kg is 100%.

**Q.** What about the responders at 50 mg/kg [2, 5] of the same compound?
**A.** The responders at 50 mg/kg was 100%.

**Q.** COC1=CC(=O)O[C@H]1[C@H](OC(=O)C(C)(C)N)c1ccccc1Cl (relative stereo) [Example 155, threo-5-[2-chlorophenyl-(2-methylalanyloxy)-methyl]-4-methoxy-2(5H)-furanone-hydrobromide] was tested. Which “ED 50 values (estimated values)” value [2, 10] did it give?
**A.** The value was 20 to 30 mg/kg.

**Q.** And the responders at 25 mg/kg ([2]; po, 1 h, oral, 1 hr after administration, n = 10, read-out: protective action [%] after 1 hr)?
**A.** The responders at 25 mg/kg was 50%.

**Q.** What about the responders at 25 mg/kg ([2]; po, 3 h, oral, 3 hrs after administration, n = 10, read-out: protective action [%] after 3 hrs) of the same compound?
**A.** Its responders at 25 mg/kg is 10%.

**Q.** What does the source list for CCCC(CCC)C(=O)O [valproic acid, reference compound]?
**A.** Neurotoxic limiting dose in the mouse, dose p.o. ([1]; p.o.): 350 mg/kg; responders at 100 mg/kg [3]: 0%; ED50 ([2]; ip, 1 h): 205 mg/kg; responders at 100 mg/kg ([2]; ip, 3 h, read-out: protective action [%] after 3 hrs): 0%

**Q.** With COC1=CC(=O)O[C@H]1[C@H](OC(=O)CN)c1ccccc1Cl (relative stereo) [Example 112, threo-5-[2-chlorophenyl-glycyloxy)methyl-4-methoxy-2(5H)-furanone hydrochloride] as the compound, how does the “protective action [%] after 3 hrs” value ([2]; 50 mg/kg, oral, 3 hrs after administration, n = 10, hydrochloride) read?
**A.** Its value is 70%.

**Q.** What about the “ED 50 values” ([2]; MES test, oral, 1 hour after administration, hydrochloride, 60 min) of the same compound?
**A.** The value was 22.2 mg/kg.

**Q.** How did the “protective action [%] after 1 hr” value [2, 8] turn out when COC1=CC(=O)OC1C(OC(=O)[C@@H]1CCCN1)c1ccccc1F (single isomer, unassigned) [129 B] was run?
**A.** The value was 50%.

**Q.** And the “protective action [%] after 3 hrs” value [2, 9]?
**A.** Its value is 0%.

**Q.** What about the “ED 50 values (estimated values)” value [2, 10] of the same compound?
**A.** Its value is 95 to 105 mg/kg.

**Q.** Which “ED 50 values (estimated values)” value [2, 10] does the source give for COC1=CC(=O)O[C@H]1[C@H](OC(=O)CCCN)c1ccccc1Cl (relative stereo) [Example 113, threo-5-[4-aminobutanoyloxy-(2-chlorophenyl)-methyl]-4-methoxy-2(5H)-furanone hydrobromide] here?
**A.** The value was 25 to 35 mg/kg.

**Q.** And the responders at 50 mg/kg [2, 4]?
**A.** The responders at 50 mg/kg was 100%.

**Q.** What about the responders at 50 mg/kg [2, 5] of the same compound?
**A.** The responders at 50 mg/kg was 50%.

**Q.** Which results are given for COC1=CC(=O)OC1C(OC(=O)[C@@H]1CCCN1)c1ccccc1C (single isomer, unassigned) [141 A]?
**A.** ED 50 values (estimated values) [2, 10]: 110 to 120 mg/kg; responders at 100 mg/kg [2, 6]: 40%; responders at 100 mg/kg [2, 7]: 10%

**Q.** COC1=CC(=O)OC1C(OC(=O)[C@@H]1CCC(=O)N1)c1ccccc1Cl (single isomer, unassigned) [125 A] was tested. Which responders at 50 mg/kg [2, 4] did it give?
**A.** The responders at 50 mg/kg was 100%.

**Q.** And the responders at 50 mg/kg [2, 5]?
**A.** The responders at 50 mg/kg was 80%.
